Laboratory results as given in ChEMBL document CHEMBL2311340, “Chemical constituents from the fruit of Gardenia jasminoides and their inhibitory effects on nitric oxide production” (Bioorg Med Chem Lett, 2013).

Tested on: RAW264.7
Assay: Inhibition of nitric oxide production in lipopolysaccharide-activated mouse RAW264.7 cells by Griess reaction based method
Assay type: functional, cell-based

Structure (SMILES)	IC50
CC(/C=C/C=C(\C)C(=O)O[C@@H]1O[C@H](CO)[C@@H](O)[C@H](O)[C@H]1O)=C\C=C\C=C(C)\C=C\C=C(/C)C(=O)O[C@@H]1O[C@H](CO[C@@H]2O[C@H](CO)[C@@H](O)[C@H](O)[C@H]2O)[C@@H](O)[C@H](O)[C@H]1O	> 100 µM
COC(=O)C1=CO[C@@H](O)[C@@H]2C(CO)=C[C@@H](O)[C@H]12	28.7 µM
COC(=O)C1=CO[C@@H](O[C@@H]2O[C@H](CO)[C@@H](O)[C@H](O)[C@H]2O)[C@@H]2C(CO)=C[C@@H](O)[C@H]12	> 100 µM
CC(/C=C/C=C(\C)C(=O)O[C@@H]1O[C@H](CO[C@@H]2O[C@H](CO)[C@@H](O)[C@H](O)[C@H]2O)[C@@H](O)[C@H](O)[C@H]1O)=C\C=C\C=C(C)\C=C\C=C(/C)C(=O)O[C@@H]1O[C@H](CO[C@@H]2O[C@H](CO)[C@@H](O)[C@H](O)[C@H]2O)[C@@H](O)[C@H](O)[C@H]1O [CROCIN]	> 100 µM
COC(=O)C1=CO[C@@H](O)[C@@H]2C(CO)=CC[C@H]12 [GENIPIN]	11.1 µM
COC(=O)C1=CO[C@@H](O[C@@H]2O[C@H](CO)[C@@H](O)[C@H](O)[C@H]2O)[C@@H]2C(CO)=CC[C@H]12 [GENIPOSIDE]	> 100 µM
CC1=C(C(=O)O[C@@H]2O[C@H](CO[C@@H]3O[C@H](CO)[C@@H](O)[C@H](O)[C@H]3O)[C@@H](O)[C@H](O)[C@H]2O)C(C)(C)CC=C1 [JASMINOSIDE R]	> 100 µM
CC1=C(C(=O)O[C@@H]2O[C@H](CO[C@@H]3O[C@H](CO)[C@@H](O)[C@H](O)[C@H]3O)[C@@H](O)[C@H](O)[C@H]2O)C(C)(C)CCC1 [JASMINOSIDE S]	> 100 µM
CC1=CC(=O)CC(C)(C)[C@H]1CO[C@@H]1O[C@H](CO[C@@H]2OC[C@](O)(CO)[C@H]2O)[C@@H](O)[C@H](O)[C@H]1O [JASMINOSIDE T]	> 100 µM
CC(/C=C/C=C(\C)C(=O)O)=C\C=C\C=C(C)\C=C\C=C(/C)C(=O)O [TRANSCROCETIN]	5.99 µM

Now from value to compound:

IC50	Structure (SMILES)
> 100 µM	COC(=O)C1=CO[C@@H](O[C@@H]2O[C@H](CO[C@H]3O[C@H](CO)[C@@H](O)[C@H](O)[C@H]3O)[C@@H](O)[C@H](O)[C@H]2O)[C@@H]2C(CO)=CC[C@H]12
> 100 µM	COC(=O)C1=CO[C@@H](O[C@@H]2O[C@H](CO[C@@H]3O[C@H](COC(=O)/C=C/c4ccc(O)c(O)c4)[C@@H](O)[C@H](O)[C@H]3O)[C@@H](O)[C@H](O)[C@H]2O)[C@@H]2C(CO)=CC[C@H]12
> 100 µM	COC(=O)C1=CO[C@@H](O[C@@H]2O[C@H](CO[C@@H]3OC[C@](O)(CO)[C@H]3O)[C@@H](O)[C@H](O)[C@H]2O)[C@@H]2C(CO)=CC[C@H]12
> 100 µM	COC(=O)C1=CO[C@@H](O[C@@H]2O[C@H](CO[C@H]3OC[C@@H](O)[C@H](O)[C@H]3O)[C@@H](O)[C@H](O)[C@H]2O)[C@@H]2C(CO)=CC[C@H]12
> 100 µM	COC(=O)C1=CO[C@@H](O[C@@H]2O[C@H](CO[C@@H]3O[C@@H](C)[C@H](O)[C@@H](O)[C@H]3O)[C@@H](O)[C@H](O)[C@H]2O)[C@@H]2C(CO)=CC[C@H]12
> 100 µM	COC(=O)C1=CO[C@@H](O[C@@H]2O[C@H](CO)[C@@H](O[C@@H]3O[C@H](CO)[C@@H](O)[C@H](O)[C@H]3O)[C@H](O)[C@H]2O)[C@@H]2C(CO)=CC[C@H]12 [GENAMESIDE C]
> 100 µM	COC(=O)C1=CO[C@@H](O[C@@H]2O[C@H](CO)[C@@H](O)[C@H](O)[C@H]2O)[C@@H]2C(CO[C@@H]3O[C@H](CO)[C@@H](O)[C@H](O)[C@H]3O)=CC[C@H]12 [GENAMESIDE D]
> 100 µM	COC(=O)C1=CO[C@@H](O[C@@H]2O[C@H](CO[C@@H]3O[C@H](CO)[C@@H](O)[C@H](O)[C@H]3O)[C@@H](O)[C@H](O)[C@H]2O)[C@@H]2C(CO)=CC[C@H]12 [GENIPIN GENTIOBIOSIDE]
